Literature values, collected in patent US9744163B2, “Compositions of a polyorthoester and an aprotic solvent” (Heron Therapeutics, Inc., priority 2013, dated 2017).

Structure (SMILES): CCOC(C)=O [ethyl acetate]
- Water Miscibility (solubility in water): (8.3 g/100 ml)
